The assay has as its system caspase-8, caspase-9, AIF, cytochrome c, PARP in HCT116 cells. The assay is described as follows: Western blot of proapoptotic proteins. To be noted: p53 null cells. It counts as cell-based, human. How it is done: These are shown in Figure S5 supplementary information. […] This observation corresponds with the high selectivity of 5s towards the p53^−/− cell line. Moreover, no activation of caspase-8 or AIF was detected after incubation with the tested anilides. Similarly, the cytochrome c level was unaffected. Leakage of cytochrome c from the mitochondria is the first step of caspase-dependent apoptosis, which is often initiated by p53 activation. […] On the other hand, cleavage of PARP as well as a small but evident increase in the PARP level in response to the active compounds was observed. PolyADP-ribose polymerase is the nuclear factor that is responsible for detecting and repairing single strand breaks in DNA[79]. Its inhibition by the cleavage that is induced with caspase-3 is also a classic sign of apoptosis. However, the complex role of this protein is still vague especially in terms of any alternative activation and deactivation factors[80],[81]. Special attention is being paid to alternative ways of cell death for their potential usefulness in designing selectively targeted drugs[82]–[84].
The HCT116 cells were seeded in 3-cm Petri dishes (Nunc) at a density of 0.5·10^6 cells/well and incubated overnight. […] The protein concentration was determined using a Micro BCA™ Protein Assay Kit (Thermo-Fisher Scientific, Waltham, MA, USA c) according to the manufacturer’s instructions. […]

Each structure is given as a SMILES string.

As for `O=C(Nc1ccc(F)c(Cl)c1)c1ccc2ccccc2c1O` [5s], the “cleavage of caspases-8 and −9” value is “some cleavage”.
